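96-well plates; 48 h exposure; 5 concentrations. Endpoints by linear interpolation between flanking doses. Not reached: highest tested concentration assigned. TGI: concentration producing complete growth inhibition.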
test system: HT29 colon; assay: inhibition of tumour cell growth, NCI panel, 48 h

SMILES	TGI
S=C1NC2=C(CSC/C2=C\c2cccc(Br)c2)C(c2cccc(Br)c2)N1 (centres undefined)	> 100 µM
Clc1ccc(-c2nnc3sc4nc5ccccc5c-4nn23)c(Cl)c1	> 100 µM
N#CC(C#N)=C1SC(=Nc2ccccc2)C(=Nc2ccccc2)N1c1ccccc1	> 69.9 µM
Cc1ccc(C2=CC(=O)OC(C[P+](c3ccccc3)(c3ccccc3)c3ccccc3)(c3ccccc3)O2)cc1 (centres undefined)	29.1 µM
O=C1c2cc(-c3ccccc3)cnc2S(=O)(=O)N1c1ccc(Br)cc1	> 100 µM
CC(=NNC(=S)Nc1ccccc1)c1cccc(C(C)=NNC(=S)Nc2ccccc2)n1	> 100 µM
C=CCc1cc(-c2nc(=S)[nH][nH]2)ccc1N=NNc1ccc(C(=O)O)cc1	> 100 µM
CC(C)(C)[Si](C)(C)OCC1OC(n2ccc(=O)[nH]c2=O)C(O[Si](C)(C)C(C)(C)C)/C1=C/C#N (centres undefined)	> 47.7 µM
Nc1ccc(N=Nc2c(S(=O)(=O)O)cc3ccccc3c2S(=O)(=O)O)cc1	> 100 µM

test system: MALME-3M melanoma; assay: inhibition of tumour cell growth, NCI panel, 48 h

SMILES	TGI
Cc1nc(C)c(N2CCN([N+](=O)[O-])CC2)c(=O)[nH]1	> 100 µM
Cc1nn(-c2ccccc2)c2c1C(c1cc3ccccc3nc1Cl)NC(=O)N2 (centres undefined)	51.8 µM
Cc1cc(/N=C/c2ccc(N(C)C)cc2)n(-c2ccccc2)n1	> 100 µM
C/C(C[n+]1ccccc1)=N\N=C(N)N	> 100 µM
O=[N+]([O-])C(=C(Nc1cccc2cccnc12)Nc1cccc2cccnc12)C(Cl)=C(Cl)Cl	> 100 µM
O=C1NC2c3c(I)sc(I)c3C(O)C2O1 (centres undefined)	> 100 µM
NCCCN1c2ccccc2Sc2ccc(Cl)cc21	> 10 µM
CCOC(=O)c1cccc(N=Nc2nc[nH]c2/C=C/C(=O)OC)c1	71.8 µM
Cc1cccc(C)c1NC(=O)C(Cc1c[nH]c2ccccc12)NC(=O)OCc1ccccc1 (centres undefined)	52.8 µM
S=C1NC2=C(CSC/C2=C\c2cccc(Br)c2)C(c2cccc(Br)c2)N1 (centres undefined)	> 100 µM
Clc1ccc(-c2nnc3sc4nc5ccccc5c-4nn23)c(Cl)c1	> 100 µM
N#CC(C#N)=C1SC(=Nc2ccccc2)C(=Nc2ccccc2)N1c1ccccc1	67.6 µM
Cc1ccc(C2=CC(=O)OC(C[P+](c3ccccc3)(c3ccccc3)c3ccccc3)(c3ccccc3)O2)cc1 (centres undefined)	30.5 µM
O=C1c2cc(-c3ccccc3)cnc2S(=O)(=O)N1c1ccc(Br)cc1	96.9 µM
CC(=NNC(=S)Nc1ccccc1)c1cccc(C(C)=NNC(=S)Nc2ccccc2)n1	52.5 µM
C=CCc1cc(-c2nc(=S)[nH][nH]2)ccc1N=NNc1ccc(C(=O)O)cc1	> 100 µM
CC(C)(C)[Si](C)(C)OCC1OC(n2ccc(=O)[nH]c2=O)C(O[Si](C)(C)C(C)(C)C)/C1=C/C#N (centres undefined)	> 100 µM
Nc1ccc(N=Nc2c(S(=O)(=O)O)cc3ccccc3c2S(=O)(=O)O)cc1	> 100 µM

test system: MDA-N; assay: inhibition of tumour cell growth, NCI panel, 48 h

SMILES	TGI
Cc1nc(C)c(N2CCN([N+](=O)[O-])CC2)c(=O)[nH]1	> 100 µM
Cc1nn(-c2ccccc2)c2c1C(c1cc3ccccc3nc1Cl)NC(=O)N2 (centres undefined)	37.2 µM
Cc1cc(/N=C/c2ccc(N(C)C)cc2)n(-c2ccccc2)n1	> 100 µM
C/C(C[n+]1ccccc1)=N\N=C(N)N	> 100 µM
O=[N+]([O-])C(=C(Nc1cccc2cccnc12)Nc1cccc2cccnc12)C(Cl)=C(Cl)Cl	> 69.7 µM
O=C1NC2c3c(I)sc(I)c3C(O)C2O1 (centres undefined)	> 100 µM
NCCCN1c2ccccc2Sc2ccc(Cl)cc21	> 5.98 µM
CCOC(=O)c1cccc(N=Nc2nc[nH]c2/C=C/C(=O)OC)c1	> 100 µM
Cc1cccc(C)c1NC(=O)C(Cc1c[nH]c2ccccc12)NC(=O)OCc1ccccc1 (centres undefined)	54.6 µM
S=C1NC2=C(CSC/C2=C\c2cccc(Br)c2)C(c2cccc(Br)c2)N1 (centres undefined)	> 100 µM
Clc1ccc(-c2nnc3sc4nc5ccccc5c-4nn23)c(Cl)c1	82.6 µM
N#CC(C#N)=C1SC(=Nc2ccccc2)C(=Nc2ccccc2)N1c1ccccc1	37.8 µM
Cc1ccc(C2=CC(=O)OC(C[P+](c3ccccc3)(c3ccccc3)c3ccccc3)(c3ccccc3)O2)cc1 (centres undefined)	29.2 µM
O=C1c2cc(-c3ccccc3)cnc2S(=O)(=O)N1c1ccc(Br)cc1	> 100 µM
CC(=NNC(=S)Nc1ccccc1)c1cccc(C(C)=NNC(=S)Nc2ccccc2)n1	> 100 µM
C=CCc1cc(-c2nc(=S)[nH][nH]2)ccc1N=NNc1ccc(C(=O)O)cc1	> 100 µM
CC(C)(C)[Si](C)(C)OCC1OC(n2ccc(=O)[nH]c2=O)C(O[Si](C)(C)C(C)(C)C)/C1=C/C#N (centres undefined)	> 85.7 µM
Nc1ccc(N=Nc2c(S(=O)(=O)O)cc3ccccc3c2S(=O)(=O)O)cc1	> 100 µM

test system: NCI-H23 lung; assay: inhibition of tumour cell growth, NCI panel, 48 h

SMILES	TGI
Cc1nc(C)c(N2CCN([N+](=O)[O-])CC2)c(=O)[nH]1	> 100 µM
Cc1nn(-c2ccccc2)c2c1C(c1cc3ccccc3nc1Cl)NC(=O)N2 (centres undefined)	37.6 µM
Cc1cc(/N=C/c2ccc(N(C)C)cc2)n(-c2ccccc2)n1	> 100 µM
C/C(C[n+]1ccccc1)=N\N=C(N)N	> 100 µM
O=[N+]([O-])C(=C(Nc1cccc2cccnc12)Nc1cccc2cccnc12)C(Cl)=C(Cl)Cl	> 100 µM
O=C1NC2c3c(I)sc(I)c3C(O)C2O1 (centres undefined)	> 100 µM
NCCCN1c2ccccc2Sc2ccc(Cl)cc21	> 10 µM
CCOC(=O)c1cccc(N=Nc2nc[nH]c2/C=C/C(=O)OC)c1	> 100 µM
Cc1cccc(C)c1NC(=O)C(Cc1c[nH]c2ccccc12)NC(=O)OCc1ccccc1 (centres undefined)	70.8 µM
S=C1NC2=C(CSC/C2=C\c2cccc(Br)c2)C(c2cccc(Br)c2)N1 (centres undefined)	> 100 µM
Clc1ccc(-c2nnc3sc4nc5ccccc5c-4nn23)c(Cl)c1	> 100 µM
N#CC(C#N)=C1SC(=Nc2ccccc2)C(=Nc2ccccc2)N1c1ccccc1	97.7 µM
Cc1ccc(C2=CC(=O)OC(C[P+](c3ccccc3)(c3ccccc3)c3ccccc3)(c3ccccc3)O2)cc1 (centres undefined)	27.2 µM
O=C1c2cc(-c3ccccc3)cnc2S(=O)(=O)N1c1ccc(Br)cc1	> 100 µM
CC(=NNC(=S)Nc1ccccc1)c1cccc(C(C)=NNC(=S)Nc2ccccc2)n1	> 100 µM
C=CCc1cc(-c2nc(=S)[nH][nH]2)ccc1N=NNc1ccc(C(=O)O)cc1	> 100 µM
CC(C)(C)[Si](C)(C)OCC1OC(n2ccc(=O)[nH]c2=O)C(O[Si](C)(C)C(C)(C)C)/C1=C/C#N (centres undefined)	> 100 µM
Nc1ccc(N=Nc2c(S(=O)(=O)O)cc3ccccc3c2S(=O)(=O)O)cc1	> 100 µM

test system: SNB-75 CNS; assay: inhibition of tumour cell growth, NCI panel, 48 h

SMILES	TGI
Cc1nc(C)c(N2CCN([N+](=O)[O-])CC2)c(=O)[nH]1	0.611 µM
Cc1nn(-c2ccccc2)c2c1C(c1cc3ccccc3nc1Cl)NC(=O)N2 (centres undefined)	50.2 µM
Cc1cc(/N=C/c2ccc(N(C)C)cc2)n(-c2ccccc2)n1	> 100 µM
C/C(C[n+]1ccccc1)=N\N=C(N)N	> 100 µM
O=[N+]([O-])C(=C(Nc1cccc2cccnc12)Nc1cccc2cccnc12)C(Cl)=C(Cl)Cl	> 100 µM
O=C1NC2c3c(I)sc(I)c3C(O)C2O1 (centres undefined)	> 100 µM
NCCCN1c2ccccc2Sc2ccc(Cl)cc21	> 10 µM
CCOC(=O)c1cccc(N=Nc2nc[nH]c2/C=C/C(=O)OC)c1	58.7 µM
Cc1cccc(C)c1NC(=O)C(Cc1c[nH]c2ccccc12)NC(=O)OCc1ccccc1 (centres undefined)	48.2 µM
S=C1NC2=C(CSC/C2=C\c2cccc(Br)c2)C(c2cccc(Br)c2)N1 (centres undefined)	> 100 µM
Clc1ccc(-c2nnc3sc4nc5ccccc5c-4nn23)c(Cl)c1	> 100 µM
N#CC(C#N)=C1SC(=Nc2ccccc2)C(=Nc2ccccc2)N1c1ccccc1	> 100 µM
Cc1ccc(C2=CC(=O)OC(C[P+](c3ccccc3)(c3ccccc3)c3ccccc3)(c3ccccc3)O2)cc1 (centres undefined)	36.2 µM
O=C1c2cc(-c3ccccc3)cnc2S(=O)(=O)N1c1ccc(Br)cc1	78.8 µM
CC(=NNC(=S)Nc1ccccc1)c1cccc(C(C)=NNC(=S)Nc2ccccc2)n1	> 100 µM
C=CCc1cc(-c2nc(=S)[nH][nH]2)ccc1N=NNc1ccc(C(=O)O)cc1	> 100 µM
CC(C)(C)[Si](C)(C)OCC1OC(n2ccc(=O)[nH]c2=O)C(O[Si](C)(C)C(C)(C)C)/C1=C/C#N (centres undefined)	> 100 µM
Nc1ccc(N=Nc2c(S(=O)(=O)O)cc3ccccc3c2S(=O)(=O)O)cc1	> 100 µM

test system: T-47D breast; assay: inhibition of tumour cell growth, NCI panel, 48 h

SMILES	TGI
Cc1nc(C)c(N2CCN([N+](=O)[O-])CC2)c(=O)[nH]1	> 100 µM
Cc1nn(-c2ccccc2)c2c1C(c1cc3ccccc3nc1Cl)NC(=O)N2 (centres undefined)	> 100 µM
Cc1cc(/N=C/c2ccc(N(C)C)cc2)n(-c2ccccc2)n1	89.5 µM
C/C(C[n+]1ccccc1)=N\N=C(N)N	> 100 µM
O=[N+]([O-])C(=C(Nc1cccc2cccnc12)Nc1cccc2cccnc12)C(Cl)=C(Cl)Cl	> 100 µM
O=C1NC2c3c(I)sc(I)c3C(O)C2O1 (centres undefined)	> 100 µM
NCCCN1c2ccccc2Sc2ccc(Cl)cc21	> 9.08 µM
CCOC(=O)c1cccc(N=Nc2nc[nH]c2/C=C/C(=O)OC)c1	> 100 µM
Cc1cccc(C)c1NC(=O)C(Cc1c[nH]c2ccccc12)NC(=O)OCc1ccccc1 (centres undefined)	61.2 µM
S=C1NC2=C(CSC/C2=C\c2cccc(Br)c2)C(c2cccc(Br)c2)N1 (centres undefined)	> 100 µM
Clc1ccc(-c2nnc3sc4nc5ccccc5c-4nn23)c(Cl)c1	> 100 µM
N#CC(C#N)=C1SC(=Nc2ccccc2)C(=Nc2ccccc2)N1c1ccccc1	18 µM
Cc1ccc(C2=CC(=O)OC(C[P+](c3ccccc3)(c3ccccc3)c3ccccc3)(c3ccccc3)O2)cc1 (centres undefined)	41.1 µM
O=C1c2cc(-c3ccccc3)cnc2S(=O)(=O)N1c1ccc(Br)cc1	> 100 µM
CC(=NNC(=S)Nc1ccccc1)c1cccc(C(C)=NNC(=S)Nc2ccccc2)n1	> 100 µM
C=CCc1cc(-c2nc(=S)[nH][nH]2)ccc1N=NNc1ccc(C(=O)O)cc1	70.2 µM
CC(C)(C)[Si](C)(C)OCC1OC(n2ccc(=O)[nH]c2=O)C(O[Si](C)(C)C(C)(C)C)/C1=C/C#N (centres undefined)	> 100 µM
Nc1ccc(N=Nc2c(S(=O)(=O)O)cc3ccccc3c2S(=O)(=O)O)cc1	> 100 µM

Source: PubChem BioAssay (NCI)
